This note sets out measurements from ChEMBL document CHEMBL1201862, “PubChem BioAssay data set” (2004).

The structures appear in SMILES notation.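 Method: 48-hour compound exposure of cells in 96-well plates, five concentrations, linear interpolation of endpoints. GI50 = concentration required for 50% inhibition of growth.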 Activity calls are given as the source filed them. Rule as the data show it: active = GI50 up to about 1.1 µM and inactive = higher.

Common to all, as to test: NCI-60 cell line screen, 48 h
For test [1], the system named is A498.
The test system of test [2] is A549.
Test [3] has as its system HCT-15.
Test [4] has as its system HL-60.
The subject of test [5] is Hs-578T.
In test [6] the test system is IGROV-1.
Test [7] concerns M14.
Test [8] relates to MCF7.
Test [9] has as its system OVCAR-3.
Test [10] relates to RPMI-8226.
The subject of test [11] is SF-268.
In test [12] the test system is SF-539.
Test [13] has as its system SK-MEL-28.
Test [14] deals with SR.
The subject of test [15] is TK-10.
In test [16] the test system is UACC-257.
The subject of test [17] is UACC-62.
For test [18], the system named is UO-31.
Test [19] concerns SNB-75.

Regarding `O=C(COC(c1ccc(F)cc1)c1ccc(F)cc1)N1CCN(CCCc2ccccc2)CC1`, the GI50 in test [1] was 3.08 µM (inactive); in test [2], 3.93 µM (inactive); in test [3], 3.75 µM; in test [4], 3.31 µM (inactive); in [5], 11.1 µM (inactive); in test [6] it was 5.37 µM (inactive). The GI50 in test [7] is 4.32 µM (inactive); in [8], 3.32 µM (inactive); in test [9], 4.29 µM (inactive); in [10], 3.39 µM (inactive); in test [11], 3.88 µM (inactive); in [12] it was 5.2 µM (inactive). The GI50 in [13] is 15.6 µM (inactive); in [14] it was 3.54 µM (inactive); in test [15], 5.35 µM (inactive); in test [16], 3.38 µM (inactive); in test [17], 4.26 µM (inactive); in [18] it was 1.7 µM (inactive).

Consider `COc1ccc2cc(/C=N\NC(=O)Nc3ccc([N+](=O)[O-])cc3)ccc2c1`, for which the GI50 is 11.2 µM (inactive) in test [2]; 15.1 µM in test [3]; 11 µM (inactive) in test [4]; 17.5 µM (inactive) in test [5]; 13.8 µM (inactive) in test [6]; 22.6 µM (inactive) in [7]. The GI50 is 14.4 µM (inactive) in test [8]; 18.4 µM (inactive) in test [9]; 13.8 µM (inactive) in test [10]; 12.8 µM (inactive) in test [11]; 8.24 µM (inactive) in test [12]; 14.6 µM (inactive) in test [13]. The GI50 in test [19] was 13.2 µM (inactive); in [14], > 10 µM (inactive); in test [15], 7.96 µM (inactive); in test [16], 14.6 µM (inactive); in test [17], 13.8 µM (inactive); in [18], 13.6 µM (inactive).

As for `N#Cc1c(Cl)cccc1Oc1ccc(S(=O)(=O)N/C(=N\O)Nc2ccc(Cl)cc2)cc1`, the GI50 in [1] is 15.3 µM (inactive); in [2], 16.8 µM (inactive); in test [3], 17.3 µM; in test [4], 12.1 µM (inactive); in test [5], 27.4 µM (inactive); in [6] it was 16.3 µM (inactive). For the same molecule, the GI50 was 15.7 µM (inactive) in test [7]; 17.1 µM (inactive) in test [8]; 15.8 µM (inactive) in [9]; 30.4 µM (inactive) in [10]; 19.9 µM (inactive) in test [11]; 17.7 µM (inactive) in [12]. The GI50 in [13] is 19.9 µM (inactive); in test [14], 23.9 µM (inactive); in test [15], 16.6 µM (inactive); in test [16], 16.9 µM (inactive); in test [17], 15.5 µM (inactive); in [18], 14.2 µM (inactive).

On to `O=c1c2cc([N+](=O)[O-])cnc2sn1-c1ccc(Oc2ccccc2)cc1`, for which the GI50 is > 100 µM (inactive) in test [2]; over 100 µM in test [3]; 39.9 µM (inactive) in [4]; 18.6 µM (inactive) in test [5]; 82.8 µM (inactive) in test [6]; 53.8 µM (inactive) in test [7]. Also, the GI50 was 35.3 µM (inactive) in test [8]; 36 µM (inactive) in [9]; 41.5 µM (inactive) in test [10]; 39.6 µM (inactive) in test [11]; 23.3 µM (inactive) in test [12]; 22.4 µM (inactive) in [13]. Besides, the GI50 in test [19] was 51.6 µM (inactive); in [14] it was 49.2 µM (inactive); in [15], > 100 µM (inactive); in test [16] it was > 100 µM (inactive); in test [17], 41.7 µM (inactive); in [18], 56.6 µM (inactive).

Turning to `C1CNCCNCCN1`, the GI50 in test [1] was > 100 µM (inactive); in test [2], > 100 µM (inactive); in test [3], over 100 µM; in test [4], > 100 µM (inactive); in test [5] it was > 100 µM (inactive); in test [6], > 100 µM (inactive). Also, the GI50 was > 100 µM (inactive) in test [7]; > 100 µM (inactive) in test [8]; > 100 µM (inactive) in test [9]; > 100 µM (inactive) in test [10]; > 100 µM (inactive) in test [11]; 26.2 µM (inactive) in test [12]. Besides, the GI50 in test [13], in [14], in [15], in [16], in test [17] and in [18] was > 100 µM (inactive) in each case.

For the molecule `O=C(Cc1ccccc1)NNc1nc(NNC(=O)c2ccncc2)nc(Nc2ccc([N+](=O)[O-])cc2)n1`, the GI50 in test [1] is > 10 µM (inactive); in test [2], > 10 µM (inactive); in test [3], 6.22 µM; in test [5] it was > 10 µM (inactive); in test [6], > 10 µM (inactive); in [7], > 10 µM (inactive). Moreover, the GI50 in test [8], in [9], in [10], in [11], in test [12] and in test [13] was > 10 µM (inactive) throughout. Besides, the GI50 in [19] was > 10 µM (inactive); in [14], > 10 µM (inactive); in [15], > 10 µM (inactive); in [16], 5.69 µM (inactive); in test [17], 9.38 µM (inactive); in test [18], > 10 µM (inactive).

With `Nc1nc(=O)c2cc(NCc3ccc(C(=O)NC(CCC(=O)O)C(=O)O)cc3)ccc2[nH]1` (centres undefined), the GI50 in [2] is 80.7 µM (inactive); in test [3] it was over 100 µM; in test [4], 21.4 µM (inactive); in test [5] it was > 100 µM (inactive); in [6], > 100 µM (inactive); in test [7] it was 20.8 µM (inactive). In addition, the GI50 in test [8] was 6.56 µM (inactive); in test [9], > 100 µM (inactive); in test [10] it was > 100 µM (inactive); in test [11], 59 µM (inactive); in [12], 6.65 µM (inactive); in test [13], > 100 µM (inactive). Also, the GI50 in [19] is > 100 µM (inactive); in test [14] it was 23.3 µM (inactive); in test [15], > 100 µM (inactive); in test [16], > 100 µM (inactive); in test [17], 45.9 µM (inactive); in test [18], 15.1 µM (inactive).

Regarding `NC1CC(=O)c2sccc21` (centres undefined), the GI50 in [1] is > 100 µM (inactive); in test [2], > 100 µM (inactive); in test [3], over 100 µM; in test [5], > 100 µM (inactive); in test [6], > 100 µM (inactive); in [7], > 100 µM (inactive). The GI50 in test [8], in test [9], in [10], in [11], in test [12] and in test [13] was > 100 µM (inactive) in each case. The GI50 in test [19], in test [14], in test [15], in test [16], in test [17] and in [18] was > 100 µM (inactive) throughout.
